From US20250108088A1, “REGENERATIVE PEPTIDES AND METHODS FOR USE THEREOF” (priority 2023, published 2025)

System: Normal human dermal fibroblasts (HNDF)
Test: Myofibroblast transition assay (MFT), aSMA immunofluorescence
Assay type: cell-based
Settings: 10 ng/ml peptide; N = 3; TGF-Beta induced HNDF; control of no peptide
Excerpt: The myofibroblast transition (MFT) assay determines the effect of the peptide on inhibiting the transition of fibroblasts to myofibroblasts. The extracellular matrix produced by myofibroblasts may be produced in excess and may not be remodeled during tissue healing, leaving behind the fibrous connective tissue that forms a scar. Thus, the ability to regulate the degree of MFT may enable control of scarring. To determine if the peptides provided herein affect MFT, the following assay was performed.
Normal human dermal fibroblasts (HNDF) were cultured in high glucose Dulbecco's modified eagle medium (DMEM) supplemented with 10% fetal bovine serum (FBS) and 5 ml of 10,000 units of penicillin/streptomycin. Cells were cultured on 10 cm plates with media changes every 2 days. Cells were passaged in 0.25% Trypsin/EDTA after achieving 80% confluency.
To induce myofibroblast transition (MFT), normal human dermal fibroblasts (HNDFs) were split from 1-10 cm plates to 5-96 well plates. Cells were then allowed to grow the next day. The following day, cells were serum starved (1% FBS in DMEM) for 4 hours prior to adding 20 ng/ml of TGF-Beta to all wells of the plate. 1000 μM of Vactosertib (TEW-7197/EW-7197) was added to serve as a positive control and different concentrations of peptides were added to serve as the test articles. The cells were then exposed to the compounds for 5 more days before fixation.
The cells were fixed in paraformaldehyde (PFA) for 10-15 minutes, then washed 2× in PBS. Cells were blocked in 4% BSA for 30 minutes at 23° C. Cells were stained with the primary alpha-smooth muscle actin (aSMA) antibody (1:100) for 1 hour at 23° C. or left out at 4° C. overnight. Cells were rinsed 2× with BSA and then the secondary antibody mix was added: Alexa 488 (1:500) and DAPI (1:1000) for 30 min at 23° C. or 1 hr at 4° C. The plates were covered during staining, then rinsed 2× in BSA and stored in PBS.
Plates were imaged using the Celigo Imaging Cytometer by Nexcelcom. The ratio of fluorescent expression of alpha-smooth muscle actin (aSMA) and DAPI were quantified to determine the amount of aSMA/cell.
The change (normalized to the control) in MFT for each concentration is shown along with the p value for all experiments relative to the control of no peptide.

In order of falling “Myofibroblast transition (MFT), aSMA/cell, % change relative to control” value:
1. RWMAP [MBb74]  0.04975%
2. HNGILID [MBBey24]  −0.05283%
3. GESKGLGLRKRLRKFRNK [MBb36]  −0.07698%
4. IRTLDCDADKKDYCLFGRCQYIVELETFRCRCQKGYYGERCVYLEL [EA-2]  −0.1343%
5. CDADKKDYCLFGRCQYIVELETFRCRCQKGYYGERCVYLEL [EA-1]  −0.1401%
6. IAHELGH [MBb2.2]  −0.1592%
7. AKEVEKH [MBBey4]  −0.2205%
8. ASCRC [MBb5]  −0.298%
9. QLFEDVIAEP [MBBey 38]  −0.3071%
10. RNPDSPQ [MBBey14]  −0.3781%
11. VAAHELGHSLGMGH [MBm2]  −0.4235%
12. SDAAVDTSSEITTKDLKEKKEVVEEAENGR [PS-2]  −0.4315%
13. VCDEPKDQTVVGPALAAYR [MBWhit46]  −0.534%
14. DVLDKRLFWIQYNREG [MBWhit45]  −0.6471%
15. PHKGLFCHFGSPANRKIGV [MBWhit47]  −0.6575%
16. IGERCQYRDLKWWELR [MBWhit44]  −0.702%

Same assay, conditions: 100 ng/ml peptide; N = 3; TGF-Beta induced HNDF; control of no peptide

In order of falling “Myofibroblast transition (MFT), aSMA/cell, % change relative to control” value:
1. HNGILID [MBBey24]  0.06835%
2. AVHELGH [MBb24]  −0.1419%
3. IAHELGH [MBb2.2]  −0.1476%
4. GESKGLGLRKRLRKFRNK [MBb36]  −0.1964%
5. DCRICS [MBa1]  −0.2174%
6. CDADKKDYCLFGRCQYIVELETFRCRCQKGYYGERCVYLEL [EA-1]  −0.2928%
7. IRTLDCDADKKDYCLFGRCQYIVELETFRCRCQKGYYGERCVYLEL [EA-2]  −0.3241%
8. VAAHELGHSLGMGH [MBm2]  −0.3275%
9. ASLHGNGLRKRLRKFRNK [MBb66]  −0.3446%
10. RNPDSPQ [MBBey14]  −0.3863%
11. ASCRC [MBb5]  −0.409%
12. AKEVEKH [MBBey4]  −0.4435%
13. SDAAVDTSSEITTKDLKEKKEVVEEAENGR [PS-2]  −0.498%
14. IGERCQYRDLKWWELR [MBWhit44]  −0.5753%
15. PHKGLFCHFGSPANRKIGV [MBWhit47]  −0.5896%
16. CGGLPGLRKRLRKFRNK [MBb41]  −0.6154%
17. VCDEPKDQTVVGPALAAYR [MBWhit46]  −0.6191%
18. DVLDKRLFWIQYNREG [MBWhit45]  −0.6265%

Same assay, conditions: 1000 ng/ml peptide; N = 3; TGF-Beta induced HNDF; control of no peptide

In order of falling “Myofibroblast transition (MFT), aSMA/cell, % change relative to control” value:
1. HNGILID [MBBey24]  0.2745%
2. IRTLDCDADKKDYCLFGRCQYIVELETFRCRCQKGYYGERCVYLEL [EA-2]  −0.00716%
3. CDADKKDYCLFGRCQYIVELETFRCRCQKGYYGERCVYLEL [EA-1]  −0.0906%
4. IAHELGH [MBb2.2]  −0.1928%
5. VAAHELGHSLGMGH [MBm2]  −0.2058%
6. CGGLPGLRKRLRKFRNK [MBb41]  −0.2177%
7. RWMAP [MBb74]  −0.3048%
8. RNPDSPQ [MBBey14]  −0.5336%
9. PHKGLFCHFGSPANRKIGV [MBWhit47]  −0.5755%
10. IGERCQYRDLKWWELR [MBWhit44]  −0.6111%
11. DVLDKRLFWIQYNREG [MBWhit45]  −0.6136%
12. ASCRC [MBb5]  −0.6162%
13. VCDEPKDQTVVGPALAAYR [MBWhit46]  −0.6328%

Same assay, conditions: most effective significant concentration of 10, 100, 1000 ng/ml; N = 3

In the case of AKEVEKH [MBBey4], the “MFT, Representative value from experiments (% change relative to control)” value (“MFT … (% change relative to control)” below) is reported as −0.4435 p = (0.007) %.
For ASCRC [MBb5], the “MFT … (% change relative to control)” value was −0.6162 p = (0.01) %.
In the case of ASLHGNGLRKRLRKFRNK [MBb66], the “MFT … (% change relative to control)” value is reported as −0.3446 p = (0.024) %.
For AVHELGH [MBb24], the “MFT … (% change relative to control)” value was −0.1419 p = (0.003) %.
With “CDADKKDYCLFGRCQYIVELETFRCRCQKGYYGERCVYLEL [EA-1]” the “MFT … (% change relative to control)” value was −0.2928 p = (0.016) %.
CGGLPGLRKRLRKFRNK [MBb41] was tested, and the “MFT … (% change relative to control)” value was −0.6154 p = (0.03) %.
For DCRICS [MBa1], the “MFT … (% change relative to control)” value was −0.2174 p = (0.04) %.
DVLDKRLFWIQYNREG [MBWhit45] was tested, and the “MFT … (% change relative to control)” value was −0.6471 p = (0.018) %.
With GESKGLGLRKRLRKFRNK [MBb36] the “MFT … (% change relative to control)” value was −0.1964 p = (0.002) %.
For HNGILID [MBBey24], the “MFT … (% change relative to control)” value was −0.05283 p = (0.005) %.
IAHELGH [MBb2.2] was tested, and the “MFT … (% change relative to control)” value was −0.1928 p = (0.021) %.
For IGERCQYRDLKWWELR [MBWhit44], the “MFT … (% change relative to control)” value was −0.702 p = (0.025) %.
For “IRTLDCDADKKDYCLFGRCQYIVELETFRCRCQKGYYGERCVYLEL [EA-2]”, the “MFT … (% change relative to control)” value was −0.3241 p = (0.014) %.
In the case of PHKGLFCHFGSPANRKIGV [MBWhit47], the “MFT … (% change relative to control)” value is reported as −0.6575 p = (0.021) %.
For QLFEDVIAEP [MBBey 38], the “MFT … (% change relative to control)” value was −0.3071 p = (0.007) %.
RNPDSPQ [MBBey14] was tested, and the “MFT … (% change relative to control)” value was −0.5336 p = (0.012) %.
For RWMAP [MBb74], the “MFT … (% change relative to control)” value was −0.3048 p = (0.019) %.
For SDAAVDTSSEITTKDLKEKKEVVEEAENGR [PS-2], the “MFT … (% change relative to control)” value was −0.498 p = (0.048) %.
With VAAHELGHSLGMGH [MBm2] the “MFT … (% change relative to control)” value was −0.4235 p = (0.007) %.
VCDEPKDQTVVGPALAAYR [MBWhit46] was tested, and the “MFT … (% change relative to control)” value was −0.6328 p = (0.031) %.
